{"source": "patent US6994991B1", "about": "“Identification of differentially methylated multiple drug resistance loci” (North Shore - Long Island Jewish Research Institute, priority 1998, dated 2006)", "system": "MCF7/AdrR cells", "test": "MTT viability assay of transfected drug resistant cells exposed to drug", "type": "cell-based, human", "conditions": "for sensitivity of cells expressing WTH3 to drug: MCF7/AdrR cells transfected with pcDNA/WTH3; for IC50: Homo sapiens", "text": "Reversion of MDR phenotype by overexpression of WTH3, RAB6 or RAB6C in MCF7/AdrR cells. WTH3, RAB6 and RAB6C cDNAs were inserted into pcDNA1.1/Amp expression vectors (Invitrogen Corp.) and transfected into drug resistant MCF7/AdrR cells (Lipofect Amine Plus™; Life Technologies, Inc., (GIBCO)). Expression of the exogenous WTH3 (pcDNA/WTH3), RAB6 (pcDNA/RAB6) or RAB6C (pcDNA/RAB6C) genes in transfected cells was confirmed by RT-PCR. Control cells were provided by transfection with pcDNA1.1/Amp which contained no insert. Cells were exposed to various concentrations of doxorubicin and viablity was determined after 72 hours by MTT assay. […] Cells expressing RAB6 or RAB6C cDNAs were tested for sensitivity to doxorubicin. […] The drug resistant control cells were 3.2 (P<0.0001) times more resistant to the antitumor drug than pcDNA/RAB6C containing cells and 2.2 (P<0.0001) times more resistant to the antitumor drug than pcDNA/RAB6 containing cells.", "note": "Where two headings read alike, the source gives them in different places."}
{"smiles": "CC[C@]1(O)C[C@H]2CN(CCc3c([nH]c4ccccc34)[C@@](C(=O)OC)(c3cc4c(cc3OC)N(C=O)[C@H]3[C@@](O)(C(=O)OC)[C@H](OC(C)=O)[C@]5(CC)C=CCN6CC[C@]43[C@@H]65)C2)C1", "note": "[vincristine]", "values": [{"measurement": "sensitivity of cells expressing WTH3 to drug", "result": "increased sensitivity"}]}
{"smiles": "COc1cccc2c1C(=O)c1c(O)c3c(c(O)c1C2=O)C[C@@](O)(C(=O)CO)C[C@@H]3O[C@H]1C[C@H](N)[C@H](O)[C@H](C)O1", "note": "[doxorubicin]", "values": [{"measurement": "IC50", "setting": "MCF7, 72 h, control cells transfected with pcDNA1.1/Amp (no insert), viability after 72 hours by MTT, read-out: Mean IC50± SD", "result": "4930 ± 300", "unit": "nM"}, {"measurement": "IC50", "setting": "MCF7, 72 h, pcDNA/RAB6C containing cells, viability after 72 hours by MTT, read-out: Mean IC50± SD", "result": "1530 ± 130", "unit": "nM"}, {"measurement": "IC50", "setting": "MCF7, 72 h, pcDNA/RAB6 containing cells, viability after 72 hours by MTT, read-out: Mean IC50± SD", "result": "2230 ± 170", "unit": "nM"}, {"measurement": "IC50", "setting": "MCF7, MCF7/AdrR cells carrying endogenously expressed RAB6C, read-out: IC50 for doxorubicin", "result": "1000 to 2500", "unit": "nM"}, {"measurement": "sensitivity of cells expressing WTH3 to drug", "result": "increased sensitivity"}, {"measurement": "resistance of control cells relative to pcDNA/RAB6C containing cells", "setting": "control vs pcDNA/RAB6C cells, P<0.0001", "result": 3.2, "unit": "times"}, {"measurement": "resistance of control cells relative to pcDNA/RAB6 containing cells", "setting": "control vs pcDNA/RAB6 cells, P<0.0001", "result": 2.2, "unit": "times"}, {"measurement": "sensitivity to doxorubicin compared to cells transfected with a control vector", "setting": "drug resistant cells transfected with a vector which expresses WTH3, RAB6C, or RAB6", "result": "increased sensitivity"}]}
